PubChem BioAssay (NCI)
Values joined by “and” are separate entries in the source; they are usually repeats but may differ in a detail not shown here. Equal values may be shown once.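 Tested at 5 concentrations; 48 h exposure; 96-well plates; endpoints linearly interpolated, else capped at highest concentration. GI50: concentration for 50% inhibition of growth. TGI is the concentration that stops growth completely.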

test system: SN12C renal; test: growth of human tumour cells (NCI), 48 h

Compared with `COc1ccccc1NC(=O)C1=C(C)NC(C)=C(C(=O)Nc2ccccc2OC)C1c1ccco1`, `COc1ccccc1C(=O)N(Cc1ccccc1)c1ccc(Cl)c(C(=O)OC(C)C)c1` is higher in TGI: 89.9 µM for the first, greater than 100 µM for the second.

First: Cc1ccc(OC(=O)N2C/C(=C\c3ccccc3)C(=O)/C(=C/c3ccccc3)C2)cc1
Second: COc1cccc(-c2nc3sccn3c2-c2ccnc(NCCCNS(=O)(=O)c3ccccc3)c2)c1
The TGI of the first is lower: 58.3 µM for the first, greater than 100 µM for the second.

`CCOc1ccc2cc(-c3nn(CC4CCNCC4)c4ncnc(N)c34)ccc2c1` and `CN1CC[C@H](c2c(O)cc(O)c3c(=O)cc(-c4ccccc4Cl)oc23)[C@H](O)C1` cannot be ordered by TGI: 33 µM for the first, greater than 10 µM for the second.

`O=c1oc2c3ccc4ccccc4c3n(CCN3CCCCC3)c2c2ccccc12` and `CSC1=Nc2c(c(C)c(-c3ccccc3)n2COC(CO)CO)C2=NC(=O)CC(C)N12` (stereo unspecified) cannot be ordered by TGI: greater than 100 µM for the first, greater than 100 µM for the second.

Going from `O=c1cccc(Cl)[nH]1` to `C=CC(=O)Nc1cc2c(Nc3ccc(F)c(Cl)c3)ncnc2cc1C#CC(C)(C)N1CCN(C)CC1`, the TGI falls from greater than 100 µM to 2.51 µM.

Compared with `OCCN(CO)CO`, `C=C1C[C@@H]2O[C@H]3[C@H]4[C@@H](CC[C@@](C)(OC(=O)CCC)[C@H]42)[C@@H](C)C(=O)O[C@@]3(C)CC[C@H]1OO` is lower in TGI: greater than 100 µM for the first, 26.5 µM for the second.

Molecule `CC1OC(OC2C(O)C(O)C(O)C(O)C2O)C(N)CC1N=C(N)C(=O)O` (stereo unspecified) has a TGI greater than 100 µM.

Compared with `CCOc1ccc2cc(-c3nn(CC4CCNCC4)c4ncnc(N)c34)ccc2c1`, `COc1cccc(-c2nc3sccn3c2-c2ccnc(NCCCNS(=O)(=O)c3ccccc3)c2)c1` is 4.2-fold lower in GI50: 11.5 µM for the first, 2.76 µM for the second.

Compared with `CN1CC[C@H](c2c(O)cc(O)c3c(=O)cc(-c4ccccc4Cl)oc23)[C@H](O)C1`, `C=CC(=O)Nc1cc2c(Nc3ccc(F)c(Cl)c3)ncnc2cc1C#CC(C)(C)N1CCN(C)CC1` is 8.1-fold higher in GI50: 0.0703 µM for the first, 0.572 µM for the second.

Going from `CSC1=Nc2c(c(C)c(-c3ccccc3)n2COC(CO)CO)C2=NC(=O)CC(C)N12` (stereo unspecified) to `C=C1C[C@@H]2O[C@H]3[C@H]4[C@@H](CC[C@@](C)(OC(=O)CCC)[C@H]42)[C@@H](C)C(=O)O[C@@]3(C)CC[C@H]1OO`, the GI50 falls from greater than 100 µM to 13.7 µM.

In the case of `NCCCN=c1ccc2c3c1c(O)c1c(O)ccc(=O)c1c3[nH]n2CCNCCO`, the GI50 is reported as 0.413 µM and 0.391 µM.

In the case of `NCCCN=c1ccc2c3c1c(O)c1c(O)ccc(=O)c1c3[nH]n2CCNCCO`, the TGI is reported as 6.15 µM and 10.2 µM.

test system: HOP-92 NSCLC; test: growth of human tumour cells (NCI), 48 h

First: CCOC(=O)c1c(CN2CCN(C)CC2)nc2ccc(Cl)cc2c1-c1ccccc1
Second: C=CC(=O)Nc1cc2c(Nc3ccc(F)c(Cl)c3)ncnc2cc1C#CC(C)(C)N1CCN(C)CC1
The GI50 of the first is 23-fold higher: 6.64 µM for the first, 0.29 µM for the second.

Compared with `CCOc1ccc2cc(-c3nn(CC4CCNCC4)c4ncnc(N)c34)ccc2c1`, `COc1cccc(-c2nc3sccn3c2-c2ccnc(NCCCNS(=O)(=O)c3ccccc3)c2)c1` is 5.6-fold lower in GI50: 4.96 µM for the first, 0.885 µM for the second.

First: CN1CC[C@H](c2c(O)cc(O)c3c(=O)cc(-c4ccccc4Cl)oc23)[C@H](O)C1
Second: CSC1=Nc2c(c(C)c(-c3ccccc3)n2COC(CO)CO)C2=NC(=O)CC(C)N12 (stereo unspecified)
The GI50 of the first is lower: 0.0693 µM for the first, greater than 100 µM for the second.

`C=C1C[C@@H]2O[C@H]3[C@H]4[C@@H](CC[C@@](C)(OC(=O)CCC)[C@H]42)[C@@H](C)C(=O)O[C@@]3(C)CC[C@H]1OO` gave a GI50 of 13.3 µM.

Compared with `CCOC(=O)c1c(CN2CCN(C)CC2)nc2ccc(Cl)cc2c1-c1ccccc1`, `C=CC(=O)Nc1cc2c(Nc3ccc(F)c(Cl)c3)ncnc2cc1C#CC(C)(C)N1CCN(C)CC1` is 13-fold lower in TGI: 22.3 µM for the first, 1.78 µM for the second.

First: COc1ccccc1NC(=O)C1=C(C)NC(C)=C(C(=O)Nc2ccccc2OC)C1c1ccco1
Second: COc1ccccc1C(=O)N(Cc1ccccc1)c1ccc(Cl)c(C(=O)OC(C)C)c1
The TGI of the first is lower: 24.2 µM for the first, greater than 45.5 µM for the second.

`Cc1ccc(OC(=O)N2C/C(=C\c3ccccc3)C(=O)/C(=C/c3ccccc3)C2)cc1` and `COc1cccc(-c2nc3sccn3c2-c2ccnc(NCCCNS(=O)(=O)c3ccccc3)c2)c1` cannot be ordered by TGI: greater than 100 µM for the first, greater than 100 µM for the second.

Going from `CCOc1ccc2cc(-c3nn(CC4CCNCC4)c4ncnc(N)c34)ccc2c1` to `CN1CC[C@H](c2c(O)cc(O)c3c(=O)cc(-c4ccccc4Cl)oc23)[C@H](O)C1`, the TGI falls from 24.9 µM to 0.524 µM (48-fold).

`O=c1oc2c3ccc4ccccc4c3n(CCN3CCCCC3)c2c2ccccc12` and `CSC1=Nc2c(c(C)c(-c3ccccc3)n2COC(CO)CO)C2=NC(=O)CC(C)N12` (stereo unspecified) cannot be ordered by TGI: greater than 100 µM for the first, greater than 100 µM for the second.

First: O=c1cccc(Cl)[nH]1
Second: C=C1C[C@@H]2O[C@H]3[C@H]4[C@@H](CC[C@@](C)(OC(=O)CCC)[C@H]42)[C@@H](C)C(=O)O[C@@]3(C)CC[C@H]1OO
The TGI of the first is higher: greater than 100 µM for the first, 26 µM for the second.

`OCCN(CO)CO` and `CC1OC(OC2C(O)C(O)C(O)C(O)C2O)C(N)CC1N=C(N)C(=O)O` (stereo unspecified) cannot be ordered by TGI: greater than 100 µM for the first, greater than 100 µM for the second.

For `NCCCN=c1ccc2c3c1c(O)c1c(O)ccc(=O)c1c3[nH]n2CCNCCO`, the GI50 was 1.84 µM and 0.409 µM.

`NCCCN=c1ccc2c3c1c(O)c1c(O)ccc(=O)c1c3[nH]n2CCNCCO` was tested, and the TGI was 10.3 µM and 2.34 µM.

test system: SNB-75 CNS; test: growth of human tumour cells (NCI), 48 h

In order of rising GI50:
1. CN1CC[C@H](c2c(O)cc(O)c3c(=O)cc(-c4ccccc4Cl)oc23)[C@H](O)C1  0.053 µM
2. CCOC(=O)c1c(CN2CCN(C)CC2)nc2ccc(Cl)cc2c1-c1ccccc1  2.15 µM
3. CCOc1ccc2cc(-c3nn(CC4CCNCC4)c4ncnc(N)c34)ccc2c1  5.13 µM

First: CCOC(=O)c1c(CN2CCN(C)CC2)nc2ccc(Cl)cc2c1-c1ccccc1
Second: O=c1oc2c3ccc4ccccc4c3n(CCN3CCCCC3)c2c2ccccc12
The TGI of the first is 2.2-fold lower: 8.95 µM for the first, 19.6 µM for the second.

First: COc1ccccc1NC(=O)C1=C(C)NC(C)=C(C(=O)Nc2ccccc2OC)C1c1ccco1
Second: COc1ccccc1C(=O)N(Cc1ccccc1)c1ccc(Cl)c(C(=O)OC(C)C)c1
The TGI of the first is lower: 29.7 µM for the first, greater than 77.5 µM for the second.

Compared with `Cc1ccc(OC(=O)N2C/C(=C\c3ccccc3)C(=O)/C(=C/c3ccccc3)C2)cc1`, `CN1CC[C@H](c2c(O)cc(O)c3c(=O)cc(-c4ccccc4Cl)oc23)[C@H](O)C1` is 360-fold lower in TGI: 55.4 µM for the first, 0.155 µM for the second.

Compared with `CCOc1ccc2cc(-c3nn(CC4CCNCC4)c4ncnc(N)c34)ccc2c1`, `O=c1cccc(Cl)[nH]1` is higher in TGI: 20.8 µM for the first, greater than 100 µM for the second.

`OCCN(CO)CO` showed a TGI greater than 100 µM.
